Tests used:
[1] = Benedict's Test for reducing sugars; assay type: physicochemical
Excerpt: As used herein, “reducing sugar” means any sugar that either has an aldehyde group or is capable of forming an aldehyde group in solution through isomerism, and that gives a positive result in the Benedict's test. An aldehyde group is —C(═O)H. The aldehyde group is important in view of reacting with and crosslinking the hair. The Benedict's test involves employment of the Benedict's solution. The Benedict's solution is available from Sigma Aldrich as ‘Benedict's Reagent’, which comprises sodium carbonate, copper sulphate pentahydrate and 2,5-difluorotoluene. In the Benedict's test, 1 mL of Benedict's solution is added to a 20 mL of 5% aqueous solution comprising a dissolved test compound. Benedict's solution contains blue copper(II) ions (Cu^2+). The solution is heated to 80° C. for 15 min and the resulting colour change is noted. The cupric ion of the Benedict's solution is reduced to cuprous ion by the aldehyde of the sugar. A positive Benedict's test result is confirmed with a change in colour as cupric ions (Cu^2+) are converted to cuprous ions i.e. reduced to copper(I) ions (Cu^+). These are precipitated as red copper(I) oxide which is insoluble in water. The test is also designed for longer heating time and higher temperature to note any colour change. The solution may range in colour (with increasing amounts of reducing sugar) from green, through yellow and orange, to red. […] The wavelength of light reflected by the solution will change with the colour. In at least one embodiment, a positive Benedict's test result is when the solution emits light not peaking with a wavelength in the range of 450 nm to 495 nm. In at least one embodiment, a positive Benedict's test result is when the solution emits light peaking with a wavelength in the range of 620 nm to 750 nm. This can be measured using a spectrophotometer.
In the art, the Benedict's reagent is used as a test for the presence of reducing sugars. This includes all monosaccharides and many disaccharides, including lactose and maltose. Even more generally, Benedict's test will detect the presence of aldehydes, and alpha-hydroxy-ketones, including those that occur in certain ketoses. Thus, although fructose, a ketose, is not strictly a reducing sugar, it is an alpha-hydroxy-ketone, it gives a positive test because it is converted to the aldoses glucose and mannose by the base in the reagent. The copper sulphate in Benedict's solution reacts with reducing sugars. One litre of Benedict's reagent can be prepared from 100 g of anhydrous sodium carbonate, 173 g of sodium citrate and 17.3 g of copper(II) sulfate pentahydrate. Benedict's Reagent provides a quantitative test for reducing sugars along with qualitative test. The colour of the obtained precipitate gives an idea about the quantity of sugar present in the solution. A greenish precipitate indicates about 0.5% concentration; yellow precipitate indicates 1% concentration; orange indicates 1.5% and red indicates 2% or higher concentration. A positive result in the Benedict's test can be recognised for a compound by a 5% (weight/weight) solution of compound in water as a red colouring. The aldehyde group of the sugar allows the sugar to act as a reducing agent, for example in the Benedict's test.

[2] = as known in the art; converted to aldoses by the base in the reagent; cited from earlier work
[3] = 80° C., 15 min, 5% aqueous solution of test compound

SMILES | Assessment of sugars using the Benedict's Test [1, 3] | Assessment of sugars using the Benedict's Test ([1]; 100° C., 40 min) | Benedict's test result [2]
CO[C@H]1OC(CO)[C@H](O)[C@@H](O)[C@@H]1O (stereo partly shown) [Methyl glucoside] | Negative | Positive | –
O=C[C@H](O)[C@H](O)[C@H](O)CO [Ribose] | Positive | Positive | –
O=C(CO)[C@@H](O)[C@H](O)[C@H](O)CO [Fructose] | Positive | Positive | positive
O=C[C@@H](O)[C@H](O)[C@H](O)CO [Arabinose] | Positive | Positive | –

Now from value to compound, other results behind:

Assessment of sugars using the Benedict's Test [1, 3] | Assessment of sugars using the Benedict's Test ([1]; 100° C., 40 min) | SMILES | Benedict's test result [2]
Negative | Positive | OC[C@H]1O[C@@](CO)(O[C@H]2O[C@H](CO)[C@@H](O)[C@H](O)[C@H]2O)[C@@H](O)[C@@H]1O [Sucrose] | –
Positive | Positive | O=C[C@H](O)[C@@H](O)[C@H](O)CO [Xylose] | –
